Laboratory results as given in patent US9149539B1, “Crystalline naloxol-PEG conjugate” (priority 2010, dated 2015).

Assay: Moisture uptake by dynamic vapor sorption (DVS)
Type: physicochemical

mPEG7-O-naloxol phosphate salt
Hysteresis between adsorption and desorption (DVS) (desorption): no hysteresis
Moisture uptake, DVS isotherm curve (whole isotherm): continuous (exponential) moisture uptake from the start
